Data as given in paper PMC9687798, “Atypical Substrates of the Organic Cation Transporter 1” (Biomolecules, 2022).

Experiments:
OCT1*3 (R61C) = target: T1, OCT1*3 (R61C) (Homo sapiens, UniProt O15245, R61C); assay: Cellular uptake by HEK293 cells overexpressing OCT1*3; type: cell-based; details: for uptake by OCT1*3 in comparison to OCT1*1: 1 µM substance; for uptake of prostaglandins by OCT1*3 in comparison to wild-type: 1, 10 and 100 µM, 120 s
T1 construct: expressed in transfected cells
T1 sequence (O15245 1-554 R61C): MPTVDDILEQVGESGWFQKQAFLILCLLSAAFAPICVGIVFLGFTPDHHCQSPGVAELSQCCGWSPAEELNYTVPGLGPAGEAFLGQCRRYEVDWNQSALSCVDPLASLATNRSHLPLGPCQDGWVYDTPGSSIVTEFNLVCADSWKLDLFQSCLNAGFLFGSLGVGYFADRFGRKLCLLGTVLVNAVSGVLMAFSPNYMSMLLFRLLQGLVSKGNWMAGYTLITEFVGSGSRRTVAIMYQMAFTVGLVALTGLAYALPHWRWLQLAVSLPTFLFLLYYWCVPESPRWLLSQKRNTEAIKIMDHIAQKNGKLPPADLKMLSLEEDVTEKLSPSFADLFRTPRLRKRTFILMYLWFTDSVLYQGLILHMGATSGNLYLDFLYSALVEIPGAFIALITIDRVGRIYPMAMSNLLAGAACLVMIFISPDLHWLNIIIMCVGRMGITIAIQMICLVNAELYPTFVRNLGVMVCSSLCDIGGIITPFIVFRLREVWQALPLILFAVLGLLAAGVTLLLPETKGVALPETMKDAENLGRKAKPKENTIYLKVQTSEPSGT
Method: The transport experiments were performed using HEK293 cells that overexpress human OCT1*1 (wild-type), mutant human OCT1 D474N, variant human OCT1*2 (M420del) and OCT1*3 (R61C), wild-type human OCT2, and OCT3 after stable transfection. The wild-type cell lines of OCT1 and OCT2, as well as the variant cell lines OCT1*2 and *3, were generated using the Flp-In system (Thermo Fisher Scientific, Darmstadt, Germany) as described in previous publications. The cell line overexpressing OCT3 was a kind gift from Dr. Koepsell and Dr. Gorbulev (University of Würzburg, Germany). Cells transfected with the empty pcDNA5/FRT vector were used for the transport experiments as a control cell line. All cells were cultured approximately up to passage 30.
Forty-eight hours before the transport experiments, 600,000 cells were plated on 12-well plates pre-coated with poly-D-lysine and incubated at 37 °C with 5% CO2. The prepared 12-well plate with cells was positioned on a heating plate pre-warmed to 37 °C. After removing the medium, the cells were washed with 37 °C HBSS+ (10 mM HEPES in Hank’s balanced salt solution, pH 7.4). Then, one pre-defined concentration of a substrate was added to each well. The incubation period was stopped by adding 2 mL of 4 °C HBSS+ and removing the cells from the heating plate. The cells were washed twice with 4 °C HBSS+. For cell lysis, the cells were incubated for 15 min with 500 µL of 80% acetonitrile (LGC Standards, Wesel, Germany), which contained a respective internal standard (Table 1).
For time-dependent transport, the cells were incubated with 1 µM of the substance for 15 to 240 s to determine the linear uptake range ≥ 15 s. For concentration-dependent transport, the cells were incubated with defined substrate concentrations (0.1, 1, 10, 30, 100, 300, 600, 1000 µM) for the respective pre-defined incubation times. […]; 100 µM) and pre-defined incubation times. The uptake by a transporter was normalised to the uptake by empty vector-transfected cells. […] The results of transport experiments were normalized to the total protein concentration per well. Total protein quantification was performed using a bicinchoninic acid assay with bovine serum albumin as standard.
The ratios of cellular uptake were calculated by dividing the total uptake of transporter-overexpressing cells by the total uptake into empty vector transfected cells. The concentration-dependent cellular net uptake was used for analysis of transport kinetics by subtracting for each substrate concentration the uptake of empty vector-transfected cells from the uptake of transporter-overexpressing cells. The transport kinetic parameters Vmax and KM were determined with non-linear regression by using the Michaelis–Menten equation for net uptake data and by using the Michaelis–Menten equation extended with a linear term for total uptake data (GraphPad Prism 5.01, GraphPad software, LA Jolla, CA, USA). The intrinsic clearance Clint was expressed with the ratio of Vmax and KM.

OCT3 = target: T2, OCT3 (Homo sapiens, UniProt O75751); assay: Cellular uptake ratio, OCT3-overexpressing HEK293 cells vs empty vector; type: cell-based; details: for OCT3 transport category: based on ratio uptake data at 1 µM
T2 construct: expressed in transfected cells; host or cells: HEK293, stably transfected; gift from Dr. Koepsell and Dr. Gorbulev (University of Würzburg)
T2 sequence (O75751 1-556): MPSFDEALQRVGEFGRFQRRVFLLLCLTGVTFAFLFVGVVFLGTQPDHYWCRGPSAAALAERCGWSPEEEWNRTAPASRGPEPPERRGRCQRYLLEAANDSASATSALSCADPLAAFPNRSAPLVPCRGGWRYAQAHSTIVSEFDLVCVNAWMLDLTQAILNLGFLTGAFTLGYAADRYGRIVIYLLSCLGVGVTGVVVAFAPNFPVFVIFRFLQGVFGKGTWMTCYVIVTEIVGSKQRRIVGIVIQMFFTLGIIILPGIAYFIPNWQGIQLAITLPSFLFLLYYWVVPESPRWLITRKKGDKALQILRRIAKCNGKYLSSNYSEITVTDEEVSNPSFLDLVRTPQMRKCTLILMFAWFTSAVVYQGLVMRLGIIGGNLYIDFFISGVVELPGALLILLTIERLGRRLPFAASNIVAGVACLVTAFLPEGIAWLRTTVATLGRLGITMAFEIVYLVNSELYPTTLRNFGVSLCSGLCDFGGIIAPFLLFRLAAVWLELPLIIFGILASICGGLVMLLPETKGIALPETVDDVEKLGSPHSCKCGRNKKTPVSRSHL
Procedure, shortened: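 Flp-In HEK293 cells stably expressing transporter, or empty pcDNA5/FRT vector as control, incubated at 37 °C in HBSS with 10 mM HEPES, pH 7.4, with substrate. Uptake quantified by LC-MS with internal standard and normalised to total protein. Ratio = total uptake in transporter cells divided by that in empty-vector cells.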

Row | uptake by OCT1*3 in comparison to OCT1*1 (OCT1*3 (R61C)) | uptake ratio by OCT3 (normalised to empty vector) (OCT3; 1 µM and 100 µM substance) | Compound | OCT3 transport category (OCT3) | uptake of prostaglandins by OCT1*3 in comparison to wild-type (OCT1*3 (R61C))
1 | reduction in uptake | below 2 | Nc1nc(=O)n([C@@H]2CS[C@H](CO)O2)cc1F [Emtricitabine, emtricitabine] | – | –
2 | – | – | N[C@@H](Cc1ccc(O)c(O)c1)C(=O)O [Levodopa, levodopa] | 0 (no transport by OCT1, OCT2, and OCT3 occurred (i.e., no kinetic parameters or uptake ratio <2 without significance)) | –
3 | to a small extent | – | N=C(N)c1ccc(OCCCCCOc2ccc(C(=N)N)cc2)cc1 [Pentamidine, pentamidine] | 0 (no transport by OCT1, OCT2, and OCT3 occurred (i.e., no kinetic parameters or uptake ratio <2 without significance)) | –
4 | – | – | CCCCC[C@H](O)/C=C/[C@H]1[C@H](O)CC(=O)[C@@H]1C/C=C\CCCC(=O)O [Prostaglandin E2, prostaglandin E2] | – | reduced to the level of the control cell line
5 | – | – | CCCCC[C@H](O)/C=C/[C@@H]1[C@@H](C/C=C\CCCC(=O)O)[C@@H](O)C[C@H]1O [Prostaglandin F2α, prostaglandin F2α] | – | reduced to the level of the control cell line
6 | reduction in uptake | – | COc1cc(Cc2cnc(N)nc2N)cc(OC)c1OC [Trimethoprim, trimethoprim] | 0 (no transport by OCT1, OCT2, and OCT3 occurred (i.e., no kinetic parameters or uptake ratio <2 without significance)) | –
7 | reduction in uptake | – | Nc1ccn([C@H]2CC[C@@H](CO)O2)c(=O)n1 [Zalcitabine, zalcitabine] | 0 (no transport by OCT1, OCT2, and OCT3 occurred (i.e., no kinetic parameters or uptake ratio <2 without significance)) | –
